Test results published in patent US20220145406A1, “BIOMARKERS, AND USES IN TREATMENT OF VIRAL INFECTIONS, INFLAMMATIONS, OR CANCER” (ABIVAX, priority 2018, published 2022).

Test system: CD4+ T cells
Test: RNAseq differential gene expression
Format: cell-based, human
Description: All statistical analyses and plots were done with R software v3.5. For normalization and processing, we used edgeR v3.22.1, EDASeq v2.14 and DESeq2 v1.20. We decided to use counts per million (CPM) over transcripts per million (TPM) mainly because TPM discards a lot of information about the original count sizes and thus would have produced too much noise for differential testing. The first step was to filter the data. We considered a gene to be expressed at a reasonable level in a sample if it had at least five counts for each million mapped reads in that sample. For marker selection, we used a type 1^(*) error α threshold set to 5%. enabling a highly flexible approach to the differential analyses despite the lack of replicates. For the same reason, the log2 fold change cutoff was set to 1.5 for both positive and negative values, and the cutoff p-value was typically ≤0.05. Those appropriate cutoffs allowed us to identify differentially expressed genes. The false discovery rate (FDR) values were computed for illustration purposes but were not taken into account in the decision due to the lack of replicates. The first methodology choice was Benjamini and Hochberg. This procedure provides less stringent control of type 1 errors compared to familywise error rate (FWER) procedures (such as the Bonferroni correction). We added an MDS plot for the data with R and edgeR package. The MDS plot produces a plot in which distances between samples correspond to the leading biological coefficient of variation (BCV) between those samples. […] We also produced several volcano plots with R and the EDASeq package. These plots were a good representation of the differential expression (DE) testing in the RNA-Seq experiments. […] The green points highlighted are markers that satisfied our selection criteria (significant in both p-value and log2FC). The yellow points highlighted are genes that satisfied the log2FC criterion but failed the p-value criterion. We retained these points to investigate further even though they had no decisional value.
A full-detailed report describing the complete analysis was submitted to Gene Expression Omnibus (GEO, https://www.ncbi.nlm.nih.gov/geo/query/acc.cgi?acc=GSE116073). Total RNA extraction was performed according to the Qiagen miRNeasy □ kit. RNA concentrations were determined using Qubit[…] fluorometric quantification and purity by the RNA 6000 Bioanalyzer kit (Agilent). RNA-Seq libraries were constructed with the TruSeq stranded mRNA sample preparation (low-throughput protocol) kit from Illumina, according to the manufacturer's instructions. Aliquots of 1.2 μg of total RNA were used for the construction of the libraries. The final cDNA libraries were validated with a Fragment Analyzer (Advanced Analytical, Ankeny, Iowa) and quantified with a KAPA qPCR kit (Kapa Biosystems, Wilmington, Mass.). On the 8 sequencing lanes of a flow cell V4, the 32 libraries were pooled in equal proportions by sets of 4 libraries per lane, denatured with NaOH and diluted to […] before clustering. Cluster formation and primer hybridization and single-end read, 50-cycle sequencing were performed on the cBot and HiSeq 2500 (Illumina, San Diego, Calif.), respectively. Image analysis and base calling were performed using the HiSeq Control Software with the Real-Time Analysis component. Demultiplexing was performed using Illumina's sequencing analysis software. The quality of the data was assessed using FastQC from the Babraham Institute and the Illumina software SAV (Sequence Analysis Viewer). Potential contaminants were investigated with the FastQ Screen software from the Babraham Institute.
In the data preprocessing step, the HiSeq control and real-time analysis software generates image analysis, base calling, and base call quality automatically in real time. “Dirty” raw reads were defined as reads that contained adaptor sequence or high content of unknown bases and low-quality reads. […]

[1] = ABX464_I_vs_DMSO_I, infected CD4 T cells
[2] = ABX464_NI_vs_DMSO_NI, uninfected CD4 T cells
[3] = uninfected CD4+ T cells, ABX464 vs untreated

In the case of FC(F)(F)Oc1ccc(Nc2ccc3cccc(Cl)c3n2)cc1 [ABX464, 8-chloro-N-(4-(trifluoromethoxy)phenyl)quinolin-2-amine], the “FC CECR1” value [1] is reported as 3.412, the “FC DPF2” value [1] is reported as 3.071 and the “FC LARS2” value [1] is reported as 2.991. The “FC LGALS3” value [1] was 3.009, the “FC NBPF20” value [1] was 8.164 and the “FC NOP9” value [1] was 3.02. The “FC SCML1” value [1] was 7.214, the “FC TOR1AIP2” value [1] was 14.39 and the “log2(FC) CECR1” value [1] was 1.771. The “log2(FC) DPF2” value [1] was 1.619, the “log2(FC) LARS2” value [1] was 1.58 and the “log2(FC) LGALS3” value [1] was 1.589. The “log2(FC) NBPF20” value [1] was 3.029, the “log2(FC) NOP9” value [1] was 1.594 and the “log2(FC) SCML1” value [1] was 2.851. For the same molecule, the “log2(FC) TOR1AIP2” value [1] was 3.847, the “FC CECR1” value [2] was 3.587 and the “FC DPF2” value [2] was 2.95. The “FC HELLS” value [2] was 0.2107, the “FC HIST1H1D” value [2] was 0.3392 and the “FC HOPX” value [2] was 3.35. The “FC LARS2” value [2] was 2.99, the “FC MZT2B” value [2] was 0.3168 and the “FC NDUFB7” value [2] was 0.3486. For the same molecule, the “FC RPS19BP1” value [2] was 0.3377, the “FC SCML1” value [2] was 9.378 and the “FC SNORD3A” value [2] was 0.1318. For the same molecule, the “FC TOR1AIP2” value [2] was 11.2, the “log2(FC) CECR1” value [2] was 1.843 and the “log2(FC) DPF2” value [2] was 1.561. The “log2(FC) HELLS” value [2] was −2.246, the “log2(FC) HIST1H1D” value [2] was −1.56 and the “log2(FC) HOPX” value [2] was 1.744. The “log2(FC) LARS2” value [2] was 1.58, the “log2(FC) MZT2B” value [2] was −1.658 and the “log2(FC) NDUFB7” value [2] was −1.52. For the same molecule, the “log2(FC) RPS19BP1” value [2] was −1.566, the “log2(FC) SCML1” value [2] was 3.229 and the “log2(FC) SNORD3A” value [2] was −2.924. The “log2(FC) TOR1AIP2” value [2] was 3.486, the “number of upregulated genes” value (infected CD4+ T cells, ABX464 vs untreated) was 9 genes and the “number of downregulated genes” value (infected CD4+ T cells, ABX464 vs untreated (FIG. 2E legend)) was 6 genes. The “number of downregulated genes” value [3] was 6 genes and the “number of upregulated genes” value [3] was 7 genes.
